In paper PMC9266368, “Synthesis and Biological Evaluation of Small Molecules as Potential Anticancer Multitarget Agents” (International Journal of Molecular Sciences, 2022):

Key:
[1] = system: HT-29 (colon adenocarcinoma); test: MTT cell viability assay, HT-29; format: cell-based; settings: Homo sapiens, HT-29, 48 h, 2 days incubation, average ±SD of three experiments
Protocol: (§1) The effects of triazole derivatives 1–26 on the cell viability were determined by MTT assay, and the IC50 values were determined toward the human tumor cell lines HT-29 (colon adenocarcinoma), A-549 (lung adenocarcinoma), and MCF-7 (breast adenocarcinoma), as well as toward the non-tumor cell line HEK-293 (human embryonic kidney cells).
(§2) In 96-well plates, 3 × 10^3 (A549 and HEK-293) or 5 × 10^3 (HT-29, MCF-7) cells per well were incubated with serial dilutions of the tested compounds in a total volume of 100 μL of their growth media. The 3-(4,5-dimethylthiazol-2-yl)-2,5-diphenyltetrazolium bromide (MTT; Sigma Chemical Co.) dye reduction assay in 96-well microplates was used. After 2 days of incubation (37 °C, 5% CO2 in a humid atmosphere), 10 μL of MTT (5 mg/mL in phosphate-buffered saline, PBS) was added to each well, and the plate was incubated for a further 3 h (37 °C). After that, the supernatant was discarded and replaced by 100 µL of DMSO to dissolve formazan crystals. The absorbance was then read at 550 nm by spectro-photometry. For all concentrations of compound, cell viability was expressed as the percentage of the ratio between the mean absorbance of treated cells and the mean absorbance of untreated cells. Three independent experiments were performed, and the IC50 values (i.e., concentration half inhibiting cell proliferation) were graphically determined by using GraphPad Prism 4 software (2019).

[2] = system: A-549 (lung adenocarcinoma); test: MTT cell viability assay, A-549; format: cell-based; settings: Homo sapiens, A549, 48 h, 2 days incubation, average ±SD of three experiments
Protocol: as §1, §2

[3] = system: MCF-7 (breast adenocarcinoma); test: MTT cell viability assay, MCF-7; format: cell-based; settings: Homo sapiens, MCF7, 48 h, 2 days incubation, average ±SD of three experiments
Protocol: as §1, §2

[4] = system: HEK-293 (human embryonic kidney cells); test: MTT cell viability assay, HEK-293; format: cell-based; settings: HEK293, 48 h, 2 days incubation, non-tumor cell line, average ±SD of three experiments
Protocol: as §1, §2

membrane PD-L1 (mPD-L1) = target: T1, membrane PD-L1 (mPD-L1) (Homo sapiens, UniProt Q9NZQ7); test: Membrane PD-L1 relative quantification by flow cytometry; format: cell-based; settings: 24 h, 100 or 10 μM (Table 7), percentage referred to DMSO control
T1 construct: endogenous in cells; host or cells: HT-29, A-549, MCF-7
T1 sequence (Q9NZQ7 19-290): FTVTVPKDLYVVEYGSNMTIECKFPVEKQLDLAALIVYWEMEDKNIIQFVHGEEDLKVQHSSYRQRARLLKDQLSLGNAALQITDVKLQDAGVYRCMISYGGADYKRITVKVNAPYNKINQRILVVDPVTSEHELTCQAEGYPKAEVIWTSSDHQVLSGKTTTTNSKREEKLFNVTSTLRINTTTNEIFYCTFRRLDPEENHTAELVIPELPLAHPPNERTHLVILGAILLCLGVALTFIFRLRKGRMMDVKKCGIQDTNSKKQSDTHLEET
Protocol: Based on antiproliferative activity of synthetized derivatives, we decided to study the effect of the amino derivatives 14–26 on the expression of both membrane targets PD-L1 and VEGFR-2 (mPD-L1 and mVEGFR-2). The evaluation was performed on three cancer cell lines (HT-29, A-549, and MCF-7) by flow cytometry after 24 h of treatment with the corresponding compounds. Compounds were used at a 100 or 10 μM concentration depending on their IC50 value (see Table 1 in Materials and Methods section). The presence of both targets in the membrane was relatively determined by using DMSO-treated cells as a negative control.
(§3) To study the effect of the compounds on every biological target in cancer cell lines the compounds were used at a 100 or 10 μM dose, depending on their IC50 and the treated cell line.
(§4) For the assay, 10^5 cells per well were incubated for 24 h with the corresponding dose of the tested compound in a total volume of 500 μL of their growth media.
To detect membrane PD-L1 and VEGFR-2, after the cell treatments, they were collected, fixed with 4% in PBS paraformaldehyde, and stained with FITC Mouse monoclonal Anti-Human VEGFR-2 (ab184903) and Alexa Fluor® 647 Rabbit monoclonal Anti-PD-L1 (ab215251).

total PD-L1 (tPD-L1) = target: T2, total PD-L1 (tPD-L1) (Homo sapiens, UniProt Q9NZQ7); test: Total PD-L1 relative quantification by flow cytometry; format: cell-based; settings: for tPD-L1 relative detection, A-549 / tPD-L1 relative detection, HT-29 / tPD-L1 relative detection, MCF-7: 24 h, 100 or 10 μM (Table 7), relative to DMSO control
T2 construct: endogenous in cells; host or cells: HT-29, A-549, MCF-7
T2 sequence (Q9NZQ7 19-290): as above
Protocol: (§5) The study was carried out again on HT-29, A-549, and MCF-7 cell lines by flow cytometry after 24 h of treatment with the corresponding compounds. The presence of the targets in the whole cell were relatively determined by using DMSO-treated cells as a negative control and BMS-8 as a positive one for PD-L1 (Table 3).
as §3, §4
(§6) For the detection of total PD-L1, VEGFR-2, and c-Myc, the procedure was the same as for membrane targets, but after fixation, a treatment with 0,5% in PBS TritonTM X-100 was performed. The antibodies used for PD-L1 and VEGFR-2 were the ones previously described, and for the detection of c-Myc, it was FITC Rabbit monoclonal anti-c-Myc (ab223913).

c-Myc = c-Myc relative quantification by flow cytometry; format: cell-based, human; settings: for c-Myc relative detection, A-549 / c-Myc relative detection, HT-29 / c-Myc relative detection, MCF-7: 24 h, 100 or 10 μM (Table 7), relative to DMSO control
Protocol: as §5, §3, §4, §6

[5] = system: HT-29 cells co-cultured with Jurkat T cells; test: Co-culture HT-29 + PD-1 Jurkat T cells: living HT-29 cells; format: cell-based, human; settings: 100 μM, 24 h; related to non-treated samples
Protocol: (§7) Cellular PD-1/PD-L1 blocking activity was studied in a co-culture system with PD-1 Jurkat T cells stimulated by interferon γ and PD-L1-expressing cancer cells. Thereby, we selected chloro derivatives 21–23 to study the proliferation of cancer cells co-cultured in the presence of PD-1 expressing Jurkat T cells in order to evaluate whether the observed PD-L1 inhibition is translated to the blockage of PD-1/PD-L1 system. […] Thus, tumor cells HT-29 were treated for 24 h with the selected compounds at 100 μM in the presence of Jurkat T cells and then living cells were counted by using cytometry and a Neubauer chamber.

Jurkat T cells = test: Co-culture HT-29 + PD-1 Jurkat T cells: living Jurkat cells; format: cell-based; settings: 100 μM, 24 h; related to non-treated samples
Protocol: as §7

PD-L1 = target: T3, PD-L1 (Homo sapiens, UniProt Q9NZQ7); test: Protein thermal shift (PTS) assay; format: binding
T3 construct: purchased ab167713
T3 sequence (Q9NZQ7 19-290): as above
Description: This assay measures the melting point (Tm) of the target protein which is a proxy of its stability that can be altered by the binding of a ligand. A change in the melting point relative to the unliganded form implies that a ligand has bound itself to the targeted protein. According to the fundamentals of this technique, an increase in Tm means that the binding of the ligand leads to a stabilization of the target protein, while a decrease in Tm is probably due to the fact that the binding between the ligand and its target leads to a destabilization of the protein. In this case, the tested compounds were able to change the PD-L1 melting temperature.
PTS assay was performed by following the instructions indicated in Protein Thermal ShiftTM Dye Kit (Applied Biosystems reference 4461146), using 2 μL of a 0.1 mg/mL of an aqueous solution of PD-L1 (reference ab167713) and 1.5 μL of a 0.1 mg/mL aqueous solution of the corresponding product. The melting curves were registered by a StepOneTM Real-Time PCR System.

[6] = target: T4, membrane VEGFR-2 (mVEGFR-2) (Homo sapiens, UniProt P35968); test: Membrane VEGFR-2 relative quantification by flow cytometry; format: cell-based; settings: 24 h, 100 or 10 μM (Table 7), sorafenib 10 μM, percentage referred to DMSO control
T4 construct: endogenous in cells; host or cells: HT-29, A-549, MCF-7
T4 sequence (P35968 20-1356): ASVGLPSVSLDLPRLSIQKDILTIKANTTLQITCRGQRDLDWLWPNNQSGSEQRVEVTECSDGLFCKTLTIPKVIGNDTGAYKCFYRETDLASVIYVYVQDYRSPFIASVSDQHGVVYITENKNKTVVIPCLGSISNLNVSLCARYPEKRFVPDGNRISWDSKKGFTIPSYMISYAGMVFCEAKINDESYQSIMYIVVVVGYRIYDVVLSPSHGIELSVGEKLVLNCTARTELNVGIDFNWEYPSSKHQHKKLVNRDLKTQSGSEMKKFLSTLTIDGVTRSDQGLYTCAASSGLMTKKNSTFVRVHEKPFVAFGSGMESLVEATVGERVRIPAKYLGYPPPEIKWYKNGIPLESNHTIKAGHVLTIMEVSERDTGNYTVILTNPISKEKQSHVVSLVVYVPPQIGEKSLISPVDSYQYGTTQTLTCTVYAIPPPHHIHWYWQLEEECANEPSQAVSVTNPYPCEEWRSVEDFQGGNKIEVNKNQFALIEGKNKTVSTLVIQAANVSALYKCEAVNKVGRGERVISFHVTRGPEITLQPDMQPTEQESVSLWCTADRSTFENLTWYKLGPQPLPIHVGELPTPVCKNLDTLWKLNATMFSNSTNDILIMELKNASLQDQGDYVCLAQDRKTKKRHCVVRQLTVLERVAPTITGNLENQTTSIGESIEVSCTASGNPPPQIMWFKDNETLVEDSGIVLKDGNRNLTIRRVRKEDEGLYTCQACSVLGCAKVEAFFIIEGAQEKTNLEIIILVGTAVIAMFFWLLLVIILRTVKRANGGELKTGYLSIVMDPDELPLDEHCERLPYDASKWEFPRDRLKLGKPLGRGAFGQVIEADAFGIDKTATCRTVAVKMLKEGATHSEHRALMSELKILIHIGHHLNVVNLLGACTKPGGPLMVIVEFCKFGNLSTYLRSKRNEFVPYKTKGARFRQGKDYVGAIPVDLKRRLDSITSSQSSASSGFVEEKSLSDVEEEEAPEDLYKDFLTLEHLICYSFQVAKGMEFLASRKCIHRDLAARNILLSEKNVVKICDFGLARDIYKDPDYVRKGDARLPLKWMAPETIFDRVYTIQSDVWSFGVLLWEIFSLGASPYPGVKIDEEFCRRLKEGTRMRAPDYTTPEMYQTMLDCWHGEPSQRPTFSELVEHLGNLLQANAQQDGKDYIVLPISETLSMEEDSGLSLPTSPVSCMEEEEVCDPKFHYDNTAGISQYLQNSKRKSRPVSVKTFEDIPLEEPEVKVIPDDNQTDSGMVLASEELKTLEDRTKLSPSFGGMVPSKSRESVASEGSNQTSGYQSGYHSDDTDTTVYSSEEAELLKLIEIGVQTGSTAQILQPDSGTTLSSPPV
Protocol: The presence of both targets in the membrane was relatively determined by using DMSO-treated cells as a negative control.
as §4

[7] = HT-29, compared to non-treated cells

SMILES | IC50 [1] | IC50 [2] | IC50 [3] | mPD-L1 relative detection, A-549 (membrane PD-L1 (mPD-L1)) | mPD-L1 relative detection, HT-29 (membrane PD-L1 (mPD-L1)) | mPD-L1 relative detection, MCF-7 (membrane PD-L1 (mPD-L1)) | tPD-L1 relative detection, A-549 (total PD-L1 (tPD-L1)) | tPD-L1 relative detection, HT-29 (total PD-L1 (tPD-L1); HT-29) | tPD-L1 relative detection, MCF-7 (total PD-L1 (tPD-L1)) | mVEGFR-2 relative detection, A-549 [6] | mVEGFR-2 relative detection, HT-29 [6] | mVEGFR-2 relative detection, MCF-7 [6] | Inhibition of total PD-L1, A-549 (total PD-L1 (tPD-L1); compared to non-treated cells) | melting point | IC50 [4] | c-Myc relative detection, A-549 (c-Myc; A-549) | c-Myc relative detection, HT-29 (c-Myc; HT-29) | c-Myc relative detection, MCF-7 (c-Myc; MCF-7) | other results
Cc1c(COc2ccc(CN3CCCCC3C(=O)O)cc2Br)cccc1-c1ccccc1 (stereo not shown) [BMS-8, reference compound] | 19 ± 2 µM | 6 ± 1 µM | 20 ± 3 µM | 99 ± 10% | 95 ± 12% | 90 ± 8% | 66 ± 8% | 62 ± 3% | 68 ± 5% |  |  |  |  |  | 60 ± 10 µM | 135 ± 15% | 99 ± 7% | 60 ± 7% | Relative number of living HT-29 cells in co-culture with Jurkat T [5]: 51 ± 8%; Relative number of living Jurkat cells in co-culture with HT-29 (Jurkat T cells): 110 ± 4%; PTS Tm (PD-L1; PD-L1 melting temperature, DMSO 34 °C): 38 °C; PTS ΔTm (PD-L1; shift of PD-L1 melting temperature vs DMSO): +4 °C
Cc1ccc(Cn2cc(-c3ccc(N)cc3)nn2)cc1 [Compound 17, 4-(1-(4-methylbenzyl)-1H-1,2,3-triazol-4-yl)aniline] | 8 ± 2 µM | 1.7 µM | 4 ± 1 µM | 88 ± 21% | 87 ± 14% | 89 ± 5% | 56 ± 19% | >100% | >100% | >100% | 81 ± 1% | >100% | ~50% | 130 to 132 °C | 4 ± 2 µM | >100% | >100% | 63 ± 2% | 
COc1ccc(Cn2cc(-c3ccc(N)cc3)nn2)cc1 [Compound 20, 4-(1-(4-methoxybenzyl)-1H-1,2,3-triazol-4-yl)aniline] | > 100 µM | > 100 µM | 6 ± 4 µM | 95 ± 8% | >100% | 91 ± 9% | 54 ± 6% | 67 ± 3% | >100% | >100% | 92 ± 14% | >100% | ~50% | 132 to 134 °C | > 100 µM | 69 ± 9% | 74 ± 23% | 62 ± 7% | Inhibition/downregulation of total PD-L1, HT-29 (total PD-L1 (tPD-L1); [7]): around 35%; Inhibition of c-Myc, A-549 (c-Myc; A-549, compared to non-treated cells): around 30%; Inhibition of c-Myc, HT-29 (c-Myc; [7]): around 30%; Inhibition of c-Myc, MCF-7 (c-Myc; MCF-7): around 30%

Second part, led by results:

IC50 [1] | IC50 [2] | IC50 [3] | mPD-L1 relative detection, A-549 (membrane PD-L1 (mPD-L1)) | mPD-L1 relative detection, HT-29 (membrane PD-L1 (mPD-L1)) | mPD-L1 relative detection, MCF-7 (membrane PD-L1 (mPD-L1)) | tPD-L1 relative detection, A-549 (total PD-L1 (tPD-L1)) | tPD-L1 relative detection, HT-29 (total PD-L1 (tPD-L1); HT-29) | tPD-L1 relative detection, MCF-7 (total PD-L1 (tPD-L1)) | mVEGFR-2 relative detection, A-549 [6] | mVEGFR-2 relative detection, HT-29 [6] | mVEGFR-2 relative detection, MCF-7 [6] | Inhibition of total PD-L1, A-549 (total PD-L1 (tPD-L1); compared to non-treated cells) | melting point | SMILES | IC50 [4] | c-Myc relative detection, A-549 (c-Myc; A-549) | c-Myc relative detection, HT-29 (c-Myc; HT-29) | c-Myc relative detection, MCF-7 (c-Myc; MCF-7) | other results
> 100 µM | > 100 µM | 12 ± 5 µM | >100% | >100% | 96 ± 5% | >100% | 85 ± 17% | >100% | >100% | 94 ± 1% | >100% |  | 103 to 105 °C | COc1cccc(Cn2cc(-c3ccc(N)cc3)nn2)c1 [Compound 19, 4-(1-(3-methoxybenzyl)-1H-1,2,3-triazol-4-yl)aniline] | > 100 µM | >100% | >100% | 55 ± 5% | 
7 ± 1 µM | 4 ± 3 µM | 4 ± 1 µM | 90 ± 6% | 74 ± 13% | 84 ± 11% | >100% | >100% | >100% | >100% | 87 ± 1% | >100% |  | 131 to 133 °C | Cc1ccccc1Cn1cc(-c2ccc(N)cc2)nn1 [Compound 15, 4-(1-(2-methylbenzyl)-1H-1,2,3-triazol-4-yl)aniline] | > 100 µM | >100% | >100% | >100% | 
